Assay results as given in patent US11180459B2, “Bacterial efflux pump inhibitors” (RUTGERS, THE STATE UNIVERSITY OF NEW JERSEY, priority 2017, dated 2021).
Counter-ions that a name gives are not always drawn. Marks after values point to notes of the source that are not given here.

Key:
P. aeruginosa ATCC 27853 [1] = experiment: Intrinsic MIC assay (broth microdilution); assay type: cell-based; conditions: Pseudomonas aeruginosa
Procedure: (§1) MIC assays were conducted in accordance with Clinical and Laboratory Standards Institute (CLSI) guidelines for broth microdilution.
The intrinsic MIC of the experimental EPIs was tested with the method described. The 2-fold serial dilution begins with 100 μg/mL of tested compound in the first column of the 96-well plates.

[2] = system: Escherichia coli ATCC 25922; experiment: Standard EPI assay: clarithromycin MIC with EPI; assay type: cell-based; conditions: clarithromycin as antibiotic; E. coli ATCC 25922; EPI at 6.25 (μg)
Procedure: as §1
(§2) The EPI assay for the purposes of these studies represents a MIC assay in which the MIC of the antibiotic against the bacteria is tested in the presence of an experimental efflux pump inhibitor (EPI). The highest concentration of the EPI present in the assay typically is ½ of the intrinsic MIC of the compound. If the intrinsic MIC of the EPI is greater than 100 μg/mL, the EPI assay was tested with 50 μg/mL. Using serial dilutions of the EPI, its enhancement of antibiotic activity was then evaluated. The relative EPI activity was decided by comparing the MIC of the antibiotic in the presence of the EPI compound with the intrinsic MIC of the antibiotic alone. For the evaluation of the efficacy of an EPI against bacteria that were pre-exposed to an antibiotic, the inoculum of bacteria that used was developed from a bacterial culture isolated as a single colony following exposure at ½ the MIIC of the antibiotic (so as to induce efflux pump expression), was to be used in combination with the EPI.
(§3) In our standard EPI assay, the MIC of the test antibiotic is determined in the absence and presence of sub-inhibitory concentrations of the EPI. Initially, the sub-inhibitory concentration used was ½×MIC of the EPI. […] The MIC of levofloxacin against P. aeruginosa ATCC 27853 in the absence of EPI is 1 μg/mL. […] Similar methodology was employed to examine the synergy with Escherichia coli ATCC 25922 in the presence of varied concentrations of these EPIs using clarithromycin as the antibiotic.

[3] = system: Pseudomonas aeruginosa ATCC 27853; experiment: Standard EPI assay: levofloxacin MIC with EPI; assay type: cell-based; conditions: P. aeruginosa ATCC 27853; for Enhanced Activity in P. aeruginosa (fold enhancement of antibiotic activity / EPI concentration): levofloxacin as antibiotic, EPI at 12.5 (μg)
Procedure: as §1, §2, §3

[4] = system: P. aeruginosa [ATCC 27853]; experiment: Mouse septicemia model of infection; assay type: in vivo, Swiss Webster female mice; conditions: Experiment #521, cefepime 10 mg/ml b.i.d.
Procedure: A general method for the in vivo assessment of bacterial EPIs is complicated by the fact that that both the antibiotic and the EPI need to be present for synergy to be achieved. A general method was discovered that has proven to be effective in establishing the relative efficacy of bacterial EPIs in a mouse septicemia model. The bacterial EPI is administered initially intravenously to mice with septicemia, followed 5 minutes later by the intravenous administration or oral administration of the antibiotic. A second administration of the EPI is then administered subcutaneously after an additional 5 minutes to act as a booster, followed by the final administration of the antibiotic either intravenously or orally after the second administration of the EPI. […] In a few instances, a second regiment of both EPI and antibiotic as administered on day 1 was required after 24 hours to affect cures.
Determination of the in vivo efficacy of bacterial efflux pump inhibitors (EPIs) can be efficiently determined using a mouse septicemia model of infection. The systemic infection is initiated by a 500 ul intraperitoneal injection of an inoculum containing bacteria (such as P. aeruginosa [ATCC 27853]) at a concentration of approximately 5×10^5 cells in 5% mucin in Swiss Webster female mice. […]

P. aeruginosa ATCC 27853 [5] = experiment: Pre-exposure bacterial EPI assay (MIC against bacteria pre-exposed to 1/2 x MIC antibiotic); assay type: cell-based; conditions: Pseudomonas aeruginosa, ATCC27853, read-out: MIC of cefepime against P. aeruginosa pre-exposed to cefepime
Excerpt: The principle underlying this pre-exposure is that exposure of the bacteria to sub-inhibitory concentrations of the test antibiotic will induce expression of efflux pumps, if any, and may represent the scenario in vivo more accurately.

With C[C@H]1COc2c(N3CCN(C)CC3)c(F)cc3c(=O)c(C(=O)O)cn1c23 [levofloxacin, reference compound] as the compound, how does the MIC (P. aeruginosa ATCC 27853 [1]; ATCC27853, P. aeruginosa ATCC 27853, read-out: MIC of levofloxacin in the absence of EPI) read?
The MIC was 1 µg/mL.

For NCCC[C@H](N)CNC(=O)c1nc2cc(-c3ccc(F)cc3)cc(C(F)(F)F)c2[nH]1 [Example 3, (S)—N-(2,5-diaminopentyl)-5-(4-fluorophenyl)-7-(trifluoromethyl)-1H-benzo[d]imidazole-2-carboxamide Dihydrochloride], which “Enhanced Activity in E. coli (fold enhancement of antibiotic activity / EPI concentration)” value [2] is on record?
The value was 8×/6.25.

And the “MIC of levofloxacin in the presence of EPI” value ([3]; 6.25 μg/mL of Example 3)?
Its value is 0.016 µg/mL.

And the “reduction of the MIC of levofloxacin relative to absence of EPI” value ([3]; 6.25 μg/mL of Example 3)?
Its value is 64 fold.

What about the “Enhanced Activity in P. aeruginosa (fold enhancement of antibiotic activity / EPI concentration)” value [3] of the same compound?
The value was 64×/12.5.

And the MIC (P. aeruginosa ATCC 27853 [1]; ATCC27853, read-out: intrinsic MIC of the EPI)?
The MIC was 25 µg/mL.

With NC[C@H]1CN[C@H](CNC(=O)c2nc3cc(-c4ccc(F)cc4)ccc3[nH]2)C1 [Example 22, N-(((2S,4S)-4-(aminomethyl)pyrrolidin-2-yl)methyl)-5-(4-fluorophenyl)-1H-benzo[d]imidazole-2-carboxamidedihydrochloride] as the compound, how does the “Enhanced Activity in E. coli (fold enhancement of antibiotic activity / EPI concentration)” value [2] read?
The value was 2×/6.25.

And the “Enhanced Activity in P. aeruginosa (fold enhancement of antibiotic activity / EPI concentration)” value [3]?
Its value is 32×/12.5.

What about the “% Survival (72 hr) Antibiotic + EPI” value ([4]; 250 ul + Example 22 2.0 mg/ml b.i.d.) of the same compound?
The value was 75%.

Which MIC (P. aeruginosa ATCC 27853 [5]) does the source give for CO/N=C(\C(=O)N[C@@H]1C(=O)N2C(C(=O)[O-])=C(C[N+]3(C)CCCC3)CS[C@H]12)c1csc(N)n1 [cefepime, reference compound] here?
Its MIC is 16 µg/mL.

What about the “% Survival (72 hr) Antibiotic Only” value ([4]; 250 ul) of the same compound?
Its value is 25%*****.
